According to patent publication US20250099420A1, “SMALL MOLECULE MODULATORS OF GPR139 COMPLEX” (University of Florida Research Foundation, Incorporated, priority 2022, published 2025):

How the values were obtained:
parental HEK cells = assay: HEK parental Antagonist Counterscreen Assay (non-transfected cells, acetylcholine control); format: cell-based; settings: for EC50: Homo sapiens, HEK293, acetylcholine as control, scientific notation, molarity
From the text: C. […] The HEK parental counterscreen utilized the same cells but not transfected with the plasmid. The agonist and antagonist modes were run the same way as the primary screen but acetylcholine was used in place of GPR139 agonist as the control compound.
The HEK parental counterscreen utilized the same cells but not transfected with the plasmid. The antagonist modes assays utilized the cells being plated in the 1536 well plate overnight in growth media prior to dye loading in PDL coated plates and acetylcholine was used in place of GPR139 agonist as the control compound.
(§1) The HEK parental counterscreen utilized the same cells but not transfected with the plasmid. Acetylcholine was used in place of GPR139 agonist as the control compound. The cells were plated overnight, similar to the HEK antagonist counterscreen protocol.
The HEK parental counterscreens utilized the same cells but not transfected with the plasmid. Acetylcholine was used in place of GPR139 agonist as the control compound. The cells were plated overnight, similar to the HEK antagonist counterscreen protocol.
(§2) For each test compound, percent activation was plotted against compound concentration. A four parameter equation describing a sigmoidal dose-response curve was then fitted with adjustable baseline using Assay Explorer software (Symyx Technologies Inc.).

GPR139 [1] = molecular target: T1, GPR139 (Homo sapiens, UniProt Q6DWJ6); assay: GPR139 Agonist titration / agonist counterscreen assay (calcium detection, HEK-GPR139 cells); format: cell-based; set-up: expressed in transfected cells; host or cells: HEK Aequorin cells, Maxcyte transient transfection; settings: agonist counterscreen of the antagonists; for EC50: scientific notation, molarity, read-out: GRP139 Agonist activity EC50
T1 sequence (Q6DWJ6 1-353): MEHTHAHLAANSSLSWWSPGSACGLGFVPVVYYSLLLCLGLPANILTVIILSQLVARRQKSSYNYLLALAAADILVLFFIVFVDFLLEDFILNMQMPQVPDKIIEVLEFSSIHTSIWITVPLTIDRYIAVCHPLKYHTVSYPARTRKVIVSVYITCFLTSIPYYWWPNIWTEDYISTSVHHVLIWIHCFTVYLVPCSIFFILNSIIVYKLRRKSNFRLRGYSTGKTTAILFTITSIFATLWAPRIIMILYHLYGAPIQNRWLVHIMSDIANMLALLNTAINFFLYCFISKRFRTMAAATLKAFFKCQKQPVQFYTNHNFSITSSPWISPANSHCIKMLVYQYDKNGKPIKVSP
Experimental: GPR activity was assessed using a calcium detection assay. […] Negative control samples were treated with DMSO. […] Intracellular calcium was measured using Calcium 5.

GPR139 [2] = molecular target: T1, GPR139; assay: GPR139 Antagonist titration assay (calcium detection, HEK-GPR139 cells, vs EC80 of S-JNJ-63533054); settings: for GPR139 Antagonist Activity Averaged Max % Response (±St. Dev.): activity relative to known control; for GPR139 Antagonist Activity Lipophilic Efficiency (logD): based on logD; for GPR139 Antagonist Activity Lipophilic Efficiency (logP): based on logP; for GPR139 Antagonist Activity Hill Slope: fitted dose-response curve
Experimental: GPR activity was assessed using a calcium detection assay. GPR139 agonists stimulate an increase in intracellular calcium in HEK-GPR139 cells. Agonists increase the release of intracellular calcium, while antagonists decrease the release of intracellular calcium, as compared to an EC80 stimulation of the know agonist S-JNJ-63533054. The positive control for the agonist mode was cells treated with EC100 of known agonist S-JNJ-63533054. Negative control samples were treated with DMSO. The antagonist high control in cells was EC80 of S-JNJ-63533054+IC100 S-JNJ-3792165, while cells were treated with EC80 of S-JNJ-63533054+DMSO for the low control. Intracellular calcium was measured using Calcium 5.
HEK cells were transfected the DNA encoding GPR139 and incubated for 24 hours. 3000 cells/well in 3 μL HEPES and 1% DMSO were seeded into 1536-well plates. 3 μL Calcium 5 was then added to each well and cells were incubated for 60 min. at 37° C. in 5% CO2 and 95% relative humidity. Cells were pretreated with 50 nL DMSO (5 min. at room temperature in the dark) to stabilize response and desensitize cells to DMSO. A 5 second basal read was recorded and compounds in 30 nL were added to the cells, followed by a 150 second read.
B. Antagonist Mode: The “High Control” represented wells containing cells with GPR139+Antagonist IC100+Agonist EC80. “Low Control” represented wells containing cells with GPR139 with EC100 Agonist. “0% control” and sample field represented wells containing cells with GPR139 with EC80 Agonist with DMSO or compounds. The Z′ and S:B for this assay were calculated using the High Control and Low Control wells.
as §1
The GPR139 Agonist and Antagonist titration assays employed the same reagents, protocols, and detection systems as the primary assays, but tested each as 10 point dose response starting at 676 nM concentration in triplicate with 1:3 dilutions. The HEK parental counterscreens utilized the same cells but not transfected with the plasmid. Acetylcholine was used in place of GPR139 agonist as the control compound. The cells were plated overnight, similar to the HEK antagonist counterscreen protocol.
as §2

Structure (SMILES) | HEK antagonist activity Averaged Max % Response (±St. Dev.) (parental HEK cells) | EC50 (parental HEK cells) [µM] | GRP139 Agonist activity Averaged Max % Response (±St. Dev.) (GPR139 [1]) | EC50 (GPR139 [1]) [µM] | EC50 (GPR139 [2]) [µM] | GPR139 Antagonist Activity Ligand Efficiency (GPR139 [2]) | GPR139 Antagonist Activity Averaged Max % Response (±St. Dev.) (GPR139 [2]) [%] | GPR139 Antagonist Activity Lipophilic Efficiency (logD) (GPR139 [2]) | GPR139 Antagonist Activity Lipophilic Efficiency (logP) (GPR139 [2]) | GRP139 Agonist activity Hill Slope (GPR139 [1]) | GPR139 Antagonist Activity Hill Slope (GPR139 [2])
Cc1cc(C(F)(F)F)nc(SCC(=O)Nc2cccc(C(F)(F)F)c2)c1C#N [SR-01000507831] | 11.97 ± 1.54% | > 13.9 | 2.74 ± 8.83% | > 13.9 | > 13.9 | 0.24 | 49.37 ± 5.06 | −233.9E−3 | −233.9E−3 | – | –
O=c1c(-c2ccc(Cl)cc2)c(C(F)(F)F)oc2cc(O)ccc12 [SR-01000438114] | 104.21 ± 5.67% | 4.2 | 68.19 ± 17.63% | 9.1 | 0.98 | 0.37 | 82.02 ± 2.67 | 2.55 | 1.57 | 1.01 | 1.59
Cc1c(-c2cccc(NC(=O)C3c4ccccc4Oc4ccccc43)c2)nc2ncccn12 [SR-01000907648] | 55.77 ± 9.26% | 7.6 | 35.82 ± 4.87% | > 14.1 | 1.5 | 0.25 | 88.60 ± 6.25 | 1.51 | 1.51 | – | 0.23
O=C(CCC(=O)OCc1ccc(Br)cc1)Nc1ccc(F)cc1 [SR-01000259336] | 26.21 ± 5.54% | > 14.1 | 6.87 ± 7.17% | > 14.1 | 3.7 | 0.33 | 90.45 ± 2.75 | 1.62 | 1.62 | – | 1.05
Brc1ccc2[nH]cc(-c3nnc4ccc5ccccc5n34)c2c1 [SR-01000524226] | −2.2E+0 ± 7.28 ^ % | > 13.3 | −11.2 ± 4.96% | > 13.3 | 10.2 | 0.30 | 60.57 ± 14.37 | 1.28 | 1.28 | – | 1.32
O=C(Nn1c(-c2cccc(Cl)c2)nc2ccccc2c1=O)c1cc(Br)ccc1Cl [SR-01000433654] | 23.11 ± 4.71% | > 10.9 | 7.71 ± 3.46% | > 10.9 | 7 | 0.25 | 82.91 ± 7.41 | −712.7E−3 | −712.7E−3 | – | 0.97
O=C(CSc1nc(-c2ccccc2)cn1-c1ccc(F)cc1)Nc1ccccc1 [SR-01000555413] | −6.1E+0 ± 7.39 ^ % | > 11.3 | 5.85 ± 3.71% | > 11.3 | 5 | 0.26 | 77.15 ± 0.74 | −521.6E−3 | −521.7E−3 | – | 1.24
COc1cc(C(=O)Nc2ccc(N3C(=O)c4ccc(Cl)cc4C3=O)c(C)c2)cc(OC)c1OC [SR-01000419723] | 25.06 ± 17.50% | > 10.6 | 3.98 ± 7.81% | > 10.6 | 2.1 | 0.23 | 82.63 ± 2.69 | 1.36 | 1.36 | – | 0.63
Cc1ccc(-n2cc(-c3ccccc3)nc2OCC(=O)Nc2ccccc2C)cc1 [SR-01000555462] | 9.21 ± 12.02% | > 11 | 1.48 ± 6.53% | > 11 | 5.2 | 0.25 | 71.75 ± 3.35 | −1.4E+0 | −1.4E+0 | – | 0.81
CCOC(=O)N1CCC(NC(=O)c2cnn3c(O)c(Cc4cccc(C)c4)c(C)nc23)CC1 [SR-01000581959] | 14.54 ± 9.66% | > 13.4 | −987E−3 ± 9.16 ^ % | – | – | 0.22 | 56.13 ± 9.03 | 2.24 | 2.24 | – | 1.46
CCCc1sc(N2CCN(C(=O)c3ccccc3)CC2)nc1-c1ccccc1 [SR-01000451510] | 16.06 ± 4.81% | > 11.7 | −9.5E+0 ± 9.17 ^ % | > 11.7 | 8.8 | 0.25 | 57.55 ± 8.35 | −866.9E−3 | −866.9E−3 | – | 1.89
Cc1cccc(-n2ccnc2SCC(=O)Nc2cccc(C)c2C)c1 [SR-01000907209] | 18.39 ± 12.65% | > 14.1 | 13.37 ± 4.41% | > 14.1 | > 1.6 | 0.33 | 87.64 ± 8.11 | 0.62 | 0.62 | – | –
CCCCCCOC(=S)SCC(=O)Nc1ccccc1 [SR-01000508699] | 23.85 ± 9.06% | > 12 | 25.84 ± 3.55% | > 12 | 2.7 | 0.39 | 85.61 ± 2.70 | 0.57 | 0.57 | – | 1.30
